According to publication PMC11596355, “Virtual Screening Approaches to Identify Promising Multitarget-Directed Ligands for the Treatment of Autism Spectrum Disorder” (Molecules, 2024):

Columns and labels:
[1] = molecular target: T1, human D3R (Homo sapiens, UniProt P35462); assay: [3H]spiperone displacement, CHO-K1 membranes; assay type: binding; settings: read-out: D3R pKi ± SEM ^b (converted)
T1 construct: gene DRD3; full-length, stably expressed in CHO-K1 cells, membrane fraction
From the text: [3H]spiperone displacement, CHO-K1 membranes on human D3R

[2] = molecular target: T2, human D2sR (D2shortR) (Homo sapiens, UniProt P14416); assay: [3H]spiperone displacement, CHO-K1 membranes; assay type: binding; settings: read-out: D2sR pKi ± SEM ^b (converted)
T2 construct: gene DRD2; full-length short isoform stably expressed in CHO-K1 cells, membrane fraction
T2 sequence (P14416 1-414 isoform P14416-2): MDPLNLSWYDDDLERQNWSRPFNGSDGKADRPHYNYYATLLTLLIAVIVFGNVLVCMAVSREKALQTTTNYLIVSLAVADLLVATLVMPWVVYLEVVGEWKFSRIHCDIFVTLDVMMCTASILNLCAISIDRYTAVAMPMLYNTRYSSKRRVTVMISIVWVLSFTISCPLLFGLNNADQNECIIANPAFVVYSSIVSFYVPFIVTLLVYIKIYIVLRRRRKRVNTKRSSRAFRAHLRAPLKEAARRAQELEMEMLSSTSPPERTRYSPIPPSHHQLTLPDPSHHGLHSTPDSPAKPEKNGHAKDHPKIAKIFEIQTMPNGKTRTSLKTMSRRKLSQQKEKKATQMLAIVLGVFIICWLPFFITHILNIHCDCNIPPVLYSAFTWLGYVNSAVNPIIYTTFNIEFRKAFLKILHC
From the text: [3H]spiperone displacement, CHO-K1 membranes on human D2sR (D2shortR)

T1 sequence (P35462 whole entry): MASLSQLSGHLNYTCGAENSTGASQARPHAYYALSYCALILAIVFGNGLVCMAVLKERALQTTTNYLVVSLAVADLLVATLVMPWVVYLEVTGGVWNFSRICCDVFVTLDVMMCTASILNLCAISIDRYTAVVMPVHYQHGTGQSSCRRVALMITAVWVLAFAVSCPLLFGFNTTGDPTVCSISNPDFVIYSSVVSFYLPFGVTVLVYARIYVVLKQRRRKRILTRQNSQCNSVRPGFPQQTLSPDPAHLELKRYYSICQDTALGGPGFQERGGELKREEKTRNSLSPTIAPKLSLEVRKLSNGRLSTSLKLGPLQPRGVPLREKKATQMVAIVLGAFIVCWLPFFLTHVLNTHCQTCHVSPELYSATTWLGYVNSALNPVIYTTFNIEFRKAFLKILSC

For N=C(N)N(CCCCN1CCN(CCCCN(Cc2ccc(C(F)(F)F)cc2)C(=N)N)CC1)Cc1ccc(C(F)(F)F)cc1 [compound 30], the Ki [1] was 14.5 µM and the Ki [2] was 0.759 µM.
